Type in all cases: biochemical
Common to all, as to conditions: 50 nM GRK, 5 μM ATP, 500 nM bROS or tubulin, 5 min

The target in one assay is GRK5 (Homo sapiens, UniProt P34947). The assay can be described thus: GRK5 kinetic assay for inhibition of GRKs (phosphorimaging). As to the method: (§1) The low salt concentration and DDM were used to maximize GRK activity and disrupt small molecule aggregates from forming, respectively. […] Data was analyzed and inhibition curves were fit via GraphPad Prism.
A further assay concerns the target T1, GRK2 (Homo sapiens, UniProt P25098).
T1 sequence (P25098 1-689): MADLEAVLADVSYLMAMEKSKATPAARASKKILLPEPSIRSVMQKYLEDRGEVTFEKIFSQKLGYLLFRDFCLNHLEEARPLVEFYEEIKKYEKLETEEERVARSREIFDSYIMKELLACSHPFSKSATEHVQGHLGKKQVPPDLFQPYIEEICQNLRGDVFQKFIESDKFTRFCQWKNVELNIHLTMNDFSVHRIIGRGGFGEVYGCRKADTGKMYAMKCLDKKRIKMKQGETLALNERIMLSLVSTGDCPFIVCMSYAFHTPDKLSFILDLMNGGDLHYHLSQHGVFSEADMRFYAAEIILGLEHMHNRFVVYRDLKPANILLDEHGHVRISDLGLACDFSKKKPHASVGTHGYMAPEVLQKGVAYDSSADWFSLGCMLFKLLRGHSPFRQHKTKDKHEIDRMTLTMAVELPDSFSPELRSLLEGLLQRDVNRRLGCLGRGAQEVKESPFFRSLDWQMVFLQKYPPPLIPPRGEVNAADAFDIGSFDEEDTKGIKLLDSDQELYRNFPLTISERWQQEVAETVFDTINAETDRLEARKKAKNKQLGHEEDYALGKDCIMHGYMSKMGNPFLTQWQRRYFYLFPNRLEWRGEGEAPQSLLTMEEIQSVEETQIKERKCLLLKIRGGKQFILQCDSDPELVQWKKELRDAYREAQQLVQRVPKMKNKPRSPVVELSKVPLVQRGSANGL
The assay can be described thus: GRK2 kinetic assay for inhibition of GRKs (phosphorimaging). As to the method: as §1

Another assay concerns the target T2, GRK1 (Bos taurus, UniProt P28327).
T2 sequence (P28327 1-535 limits assumed): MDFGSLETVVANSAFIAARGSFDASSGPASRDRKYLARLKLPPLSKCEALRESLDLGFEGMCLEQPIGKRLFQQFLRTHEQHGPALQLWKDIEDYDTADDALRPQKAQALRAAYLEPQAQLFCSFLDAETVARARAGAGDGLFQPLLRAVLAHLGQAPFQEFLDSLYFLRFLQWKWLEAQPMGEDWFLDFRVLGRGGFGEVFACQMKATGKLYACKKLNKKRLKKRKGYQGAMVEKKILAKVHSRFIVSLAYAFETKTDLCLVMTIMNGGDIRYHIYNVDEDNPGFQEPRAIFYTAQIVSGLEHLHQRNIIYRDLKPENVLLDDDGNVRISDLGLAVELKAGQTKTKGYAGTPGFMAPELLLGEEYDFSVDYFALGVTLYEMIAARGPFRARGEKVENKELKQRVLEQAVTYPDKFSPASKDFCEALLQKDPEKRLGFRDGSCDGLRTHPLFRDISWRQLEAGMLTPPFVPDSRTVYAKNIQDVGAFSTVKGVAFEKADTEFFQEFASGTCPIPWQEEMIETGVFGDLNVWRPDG
The assay can be described thus: GRK1 kinetic assay for inhibition of GRKs (phosphorimaging). Here is the method: as §1

Molecules are shown by their SMILES. Structures can show the parent of a compound that is named as a salt. A value given as a limit tells only on which side of the number the result lay.

GRK5, sequence (P34947 whole entry, species assumed): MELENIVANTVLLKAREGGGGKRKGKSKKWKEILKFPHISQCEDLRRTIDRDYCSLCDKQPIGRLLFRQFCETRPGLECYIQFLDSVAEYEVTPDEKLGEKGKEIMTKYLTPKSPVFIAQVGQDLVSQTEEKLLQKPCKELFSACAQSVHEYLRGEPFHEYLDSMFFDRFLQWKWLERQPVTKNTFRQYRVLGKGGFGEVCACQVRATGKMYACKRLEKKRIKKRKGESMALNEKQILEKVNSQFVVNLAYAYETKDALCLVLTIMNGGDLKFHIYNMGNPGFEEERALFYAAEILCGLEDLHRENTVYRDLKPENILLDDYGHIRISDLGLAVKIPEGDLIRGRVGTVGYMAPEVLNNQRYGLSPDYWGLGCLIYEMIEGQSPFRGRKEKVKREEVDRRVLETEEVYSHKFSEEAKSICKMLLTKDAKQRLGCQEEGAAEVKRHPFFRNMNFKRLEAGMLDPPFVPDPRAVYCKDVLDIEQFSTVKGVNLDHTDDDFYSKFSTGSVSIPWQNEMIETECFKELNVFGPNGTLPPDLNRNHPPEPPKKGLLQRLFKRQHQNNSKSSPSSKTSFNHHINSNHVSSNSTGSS

Broadly, the IC50 is the concentration needed to halve the response being measured. For `O=C(Cc1cc([C@@H]2CCNC[C@H]2COc2ccc3c(c2)OCO3)ccc1F)NCc1c(F)cccc1F` [Example E01, 2-(5-((3S,4R)-3-((benzo[d][1,3]dioxol-5-yloxy)methyl)piperidin-4-yl)-2-fluorophenyl)-N-(2,6-difluorobenzyl)acetamide hydrochloride], the IC50 on GRK5 was more than 100 µM; against GRK2, 2.53 µM; on GRK1, more than 100 µM.

As to `O=C(Cc1cc([C@@H]2CCNC[C@H]2COc2ccc3c(c2)OCO3)ccc1F)NCCc1c(F)cccc1F` [Example E02, 2-(5-((3S,4R)-3-((benzo[d][1,3]dioxol-5-yloxy)methyl)piperidin-4-yl)-2-fluorophenyl)-N-(2,6-difluorophenethyl)acetamide hydrochloride], the figures for the IC50 on GRK5, at GRK2 and against GRK1 were more than 100 µM, 0.42 µM and 95.3 µM, respectively.

In the case of `O=C(Cc1cc([C@@H]2CCNC[C@H]2COc2ccc3c(c2)OCO3)ccc1F)NCCc1ccccn1` [Example E03, 2-(5-((3S,4R)-3-((benzo[d][1,3]dioxol-5-yloxy)methyl)piperidin-4-yl)-2-fluorophenyl)-N-(2-(pyridin-2-yl)ethyl)acetamide hydrochloride], the IC50 against GRK5 was more than 100 µM; on GRK2 it was 3.65 µM.

`O=C(Cc1cc([C@@H]2CCNC[C@H]2COc2ccc3c(c2)OCO3)ccc1F)NCCc1cn[nH]c1` [Example E04, N-(2-(1H-pyrazol-4-yl)ethyl)-2-(5-((3S,4R)-3-((benzo[d][1,3]dioxol-5-yloxy)methyl)piperidin-4-yl)-2-fluorophenyl)acetamide hydrochloride]: the results for the IC50 against GRK5 and at GRK2 were more than 100 µM and 0.62 µM, respectively.

As for `O=C(Cc1cc([C@@H]2CCNC[C@H]2COc2ccc3c(c2)OCO3)ccc1F)NCc1ccccn1` [Example E05, 2-(5-((3S,4R)-3-((benzo[d][1,3]dioxol-5-yloxy)methyl)piperidin-4-yl)-2-fluorophenyl)-N-(pyridin-2-ylmethyl)acetamide hydrochloride], the IC50 was more than 100 µM on GRK5, 3.61 µM against GRK2 and 59.2 µM against GRK1.

As for `COc1ccccc1CNC(=O)Cc1cc([C@@H]2CCNC[C@H]2COc2ccc3c(c2)OCO3)ccc1F` [Example E06, 2-(5-((3S,4R)-3-((benzo[d][1,3]dioxol-5-yloxy)methyl)piperidin-4-yl)-2-fluorophenyl)-N-(2-methoxybenzyl)acetamide hydrochloride], the figures for the IC50 on GRK5 and at GRK2 were more than 100 µM and 0.64 µM, respectively.

Consider `O=C(NCc1ccccn1)c1cc([C@@H]2CCNC[C@H]2COc2ccc3c(c2)OCO3)ccc1F` [Example E07, 5-((3S,4R)-3-((benzo[d][1,3]dioxol-5-yloxy)methyl)piperidin-4-yl)-2-fluoro-N-(pyridin-2-ylmethyl)benzamide hydrochloride], for which the IC50 against GRK5 was found to be 15.2 µM; against GRK2, 0.44 µM.

`O=C(NCCc1cn[nH]c1)c1cc([C@@H]2CCNC[C@H]2COc2ccc3c(c2)OCO3)ccc1F` [Example E08, N-(2-(1H-pyrazol-4-yl)ethyl)-5-((3S,4R)-3-((benzo[d][1,3]dioxol-5-yloxy)methyl)piperidin-4-yl)-2-fluorobenzamide hydrochloride]: the IC50 was more than 100 µM at GRK5 and 1.75 µM at GRK2.

Turning to `COc1ccccc1CNC(=O)c1cc([C@@H]2CCNC[C@H]2COc2ccc3c(c2)OCO3)ccc1F` [Example E09, 5-((3S,4R)-3-((benzo[d][1,3]dioxol-5-yloxy)methyl)piperidin-4-yl)-2-fluoro-N-(2-methoxybenzyl)benzamide hydrochloride], the values for the half-maximal inhibitory concentration (IC50) on GRK5 and against GRK2 were more than 100 µM and 48.5 µM, respectively.

`O=C(NCc1ccccc1C(F)(F)F)c1cc([C@@H]2CCNC[C@H]2COc2ccc3c(c2)OCO3)ccc1F` [Example E10, 5-((3S,4R)-3-((benzo[d][1,3]dioxol-5-yloxy)methyl)piperidin-4-yl)-2-fluoro-N-(2-(trifluoromethyl)benzyl)benzamide hydrochloride]: the IC50 against GRK5 amounted to 61.9 µM; against GRK2 it was 12.5 µM.

The compound `O=C(NCc1c(F)cccc1F)c1cc([C@@H]2CCNC[C@H]2COc2ccc3c(c2)OCO3)ccc1F` [Example E11, 5-((3S,4R)-3-((benzo[d][1,3]dioxol-5-yloxy)methyl)piperidin-4-yl)-N-(2,6-difluorobenzyl)-2-fluorobenzamide hydrochloride] displayed an IC50 against GRK5 of 45.5 µM.

For the compound `Cc1cccc(C)c1CNC(=O)c1cc([C@@H]2CCNC[C@H]2COc2ccc3c(c2)OCO3)ccc1F` [Example E13, 5-((3S,4R)-3-((benzo[d][1,3]dioxol-5-yloxy)methyl)piperidin-4-yl)-N-(2,6-dimethylbenzyl)-2-fluorobenzamide hydrochloride], the IC50 was 56.4 µM on GRK5, 1.01 µM on GRK2 and 11.3 µM against GRK1.

Turning to `O=C(NCc1c(C(F)(F)F)cccc1C(F)(F)F)c1cc([C@@H]2CCNC[C@H]2COc2ccc3c(c2)OCO3)ccc1F` [Example E14, 5-((3S,4R)-3-((benzo[d][1,3]dioxol-5-yloxy)methyl)piperidin-4-yl)-N-(2,6-bis(trifluoromethyl)benzyl)-2-fluorobenzamide hydrochloride], the IC50 at GRK5 is 41.1 µM; against GRK2, 0.77 µM; against GRK1 it was 23.6 µM.

In turn, `O=C(NCc1ccccc1)c1cc([C@@H]2CCNC[C@H]2COc2ccc3c(c2)OCO3)ccc1F` [Example E19, 5-((3S,4R)-3-((benzo[d][1,3]dioxol-5-yloxy)methyl)piperidin-4-yl)-N-benzyl-2-fluorobenzamide] had an IC50 on GRK5 of 84.3 µM.

As for `O=C(NCCc1ccccc1)c1cc([C@@H]2CCNC[C@H]2COc2ccc3c(c2)OCO3)ccc1F` [Example E20, 5-((3S,4R)-3-((benzo[d][1,3]dioxol-5-yloxy)methyl)piperidin-4-yl)-2-fluoro-N-phenethylbenzamide], the IC50 against GRK5 was more than 100 µM.

`O=C(NCc1cccnc1)c1cc([C@@H]2CCNC[C@H]2COc2ccc3c(c2)OCO3)ccc1F` [Example E21, 5-((3S,4R)-3-((benzo[d][1,3]dioxol-5-yloxy)methyl)piperidin-4-yl)-2-fluoro-N-(pyridin-3-ylmethyl)benzamide]: at GRK5, the IC50 turned out to be 76.3 µM.

For the compound `O=C(NCc1ccncc1)c1cc([C@@H]2CCNC[C@H]2COc2ccc3c(c2)OCO3)ccc1F` [Example E22, 5-((3S,4R)-3-((benzo[d][1,3]dioxol-5-yloxy)methyl)piperidin-4-yl)-2-fluoro-N-(pyridin-4-ylmethyl)benzamide], at GRK5, the IC50 is more than 100 µM.

On GRK5, `O=C(NCCc1ccccn1)c1cc([C@@H]2CCNC[C@H]2COc2ccc3c(c2)OCO3)ccc1F` [Example E23, 5-((3S,4R)-3-((benzo[d][1,3]dioxol-5-yloxy)methyl)piperidin-4-yl)-2-fluoro-N-(2-(pyridin-2-yl)ethyl)benzamide] came in with an IC50 of more than 100 µM.

`O=C(NCCc1ccncc1)c1cc([C@@H]2CCNC[C@H]2COc2ccc3c(c2)OCO3)ccc1F` [Example E24, 5-((3S,4R)-3-((benzo[d][1,3]dioxol-5-yloxy)methyl)piperidin-4-yl)-2-fluoro-N-(2-(pyridin-4-yl)ethyl)benzamide] registered an IC50 against GRK5 of more than 100 µM.

In turn, `O=C(NCCc1cccnc1)c1cc([C@@H]2CCNC[C@H]2COc2ccc3c(c2)OCO3)ccc1F` [Example E25, 5-((3S,4R)-3-((benzo[d][1,3]dioxol-5-yloxy)methyl)piperidin-4-yl)-2-fluoro-N-(2-(pyridin-3-yl)ethyl)benzamide] displayed an IC50 against GRK5 of more than 100 µM.

The compound `O=C(NCc1ncc[nH]1)c1cc([C@@H]2CCNC[C@H]2COc2ccc3c(c2)OCO3)ccc1F` [Example E27, N-((1H-imidazol-2-yl)methyl)-5-((3S,4R)-3-((benzo[d][1,3]dioxol-5-yloxy)methyl)piperidin-4-yl)-2-fluorobenzamide] came in with an IC50 at GRK5 of 14.8 µM.

On GRK5, `O=C(NCCc1c[nH]cn1)c1cc([C@@H]2CCNC[C@H]2COc2ccc3c(c2)OCO3)ccc1F` [Example E28, N-(2-(1H-imidazol-4-yl)ethyl)-5-((3S,4R)-3-((benzo[d][1,3]dioxol-5-yloxy)methyl)piperidin-4-yl)-2-fluorobenzamide] came in with an IC50 of more than 100 µM.

The values are drawn from US10329283B2, “G protein-coupled receptor kinase inhibitors and methods for use of the same” (THE REGENTS OF THE UNIVERSITY OF MICHIGAN, priority 2015, dated 2019).
